# Molecular target: T1, Chk1 (Homo sapiens, UniProt O14757)
# T1 construct: purchased Upstate Biotechnology
# T1 sequence (O14757 1-476): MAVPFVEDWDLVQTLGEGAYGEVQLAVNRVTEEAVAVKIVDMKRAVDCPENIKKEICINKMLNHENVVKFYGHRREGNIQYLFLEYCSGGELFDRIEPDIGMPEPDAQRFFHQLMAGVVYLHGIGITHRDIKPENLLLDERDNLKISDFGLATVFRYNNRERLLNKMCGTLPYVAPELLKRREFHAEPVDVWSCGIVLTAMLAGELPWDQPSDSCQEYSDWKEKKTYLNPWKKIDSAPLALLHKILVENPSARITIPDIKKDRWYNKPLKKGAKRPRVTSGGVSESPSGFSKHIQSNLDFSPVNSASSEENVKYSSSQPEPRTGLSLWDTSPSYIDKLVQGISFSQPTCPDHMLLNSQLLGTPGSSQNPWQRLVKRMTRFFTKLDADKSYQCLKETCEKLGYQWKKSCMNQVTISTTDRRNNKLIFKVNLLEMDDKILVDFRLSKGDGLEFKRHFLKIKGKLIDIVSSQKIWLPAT
# Test: Chk1 assay: incorporation of γ-33P ATP into immobilized myelin basic protein
# Format: biochemical
# Settings: not given
# Description: Chk1 and Chk2 assays were performed by measuring incorporation of γ-^33P ATP into immobilized myelin basic protein (MBP). High binding white 384 well plates (Greiner) were coated with MBP (Sigma #M-1891) by incubation of 60ul/well of 20µg/ml MBP in Tris-buffered saline (TBS; 50mM Tris pH 8.0, 138mM NaCl, 2.7mM KCl) for 24 hours at 4° C. Plates were washed 3X with 100µl TBS. Kinase reactions were carried out in a total volume of 34µl in kinase buffer (5mM Hepes pH 7.6, 15mM NaCl, 0.01% bovine gamma globulin (Sigma #I-5506), 10mM MgCl2, 1mM DTT, 0.02% TritonX-100). Compound dilutions were performed in DMSO and added to assay wells to a final DMSO concentration of 1%. Each data point was measured in duplicate, and at least two duplicate assays were performed for each individual compound determination. Chkl and Chk2 enzymes (Upstate Biotechnology) were added to final concentrations of 10nM (Chkl) or 20nM (Chk2). A mixture of unlabeled ATP and γ-^33P ATP was added to start the reaction (2x10^6 cpm of γ-^33P ATP per well (3000Ci/mmole) and either 10µM or 30µM unlabeled ATP (for Chkl and Chk2 assays respectively). The reaction was carried out for 1 hour at room temperature with shaking. Plates were washed 7x with TBS, followed by the addition of 50µl/well scintillation fluid (Wallac). Plates were read using a Wallac Trilux counter. This is only one format of such assays, various other formats are possible, as known to those skilled in the art.
# The above assay procedure can be used to determine the IC50 for inhibition and/or the inhibition constant Ki. The IC50 is defined as the concentration of compound required to reduce the enzyme activity by 50% under the conditions of the assay. […] The Ki for a compound may be determined from the IC50 based on three assumptions. First, only one compound molecule binds to the enzyme and there is no cooperativity. […] Third, the enzymatic rate of the enzyme-inhibitor complex is zero. The rate (i.e., compound concentration) data are fitted to the equation: V = Vmax E0 [I-((E0+I0+Kd)-sqrt(((E0+I0+Kd))^2 -4E0 I0))/(2E0)] [formula]
row,Structure (SMILES),IC50 [nM]
1,"Nc1ncc(-c2cccc(C(=O)NCc3ccc(F)c(Cl)c3)c2)nc1C(=O)N[C@H]1CCCNC1 [compound 1006, 3-amino-6-[3-({[(3-chloro-4-fluorophenyl)methyl]amino}carbonyl)phenyl]-N-[(3S)-piperidin-3-yl]pyrazine-2-carboxamide]",< 50
2,"Nc1ncc(-c2cccc(C(=O)NCc3ccc(C(F)(F)F)cc3F)c2)nc1C(=O)N[C@H]1CCCNC1 [compound 1001, 3-amino-6-{3-[({[2-fluoro-4-(trifluoromethyl)phenyl]methyl}amino)carbonyl]phenyl}-N-[(3S)-piperidin-3-yl]pyrazine-2-carboxamide]",< 50

# Same assay, conditions: Table 11; Chk1 only
row,Structure (SMILES),IC50 [nM]
1,"CC(=O)NCCNC(=O)c1nc(-c2ccccc2)cnc1N [compound 47, N-[2-(acetylamino)ethyl]-3-amino-6-phenylpyrazine-2-carboxamide]",> 10000
2,"CNC(=O)c1nc(-c2ccc(F)c(C)c2)cnc1N [compound 61, 3-amino-6-(4-fluoro-3-methylphenyl)-N-methylpyrazine-2-carboxamide]",50 to 1000
3,"Nc1ncc(-c2ccccc2)nc1C(=O)NCc1ccccc1 [compound 2, 3-amino-6-phenyl-N-(phenylmethyl)pyrazine-2-carboxamide]",> 10000
4,"NC(=O)c1nc(-c2cccc(C(=O)O)c2)cnc1N [compound 42, 3-[5-amino-6-(aminocarbonyl)pyrazin-2-yl]benzoic acid]",> 10000
5,"COC(=O)c1cccc(-c2cnc(N)c(C(N)=O)n2)c1 [compound 34, methyl 3-[5-amino-6-(aminocarbonyl)pyrazin-2-yl]benzoate]",1000 to 10000
6,"NNC(=O)c1nc(-c2ccccc2)cnc1N [compound 48, 3-amino-6-phenylpyrazine-2-carbohydrazide]",1000 to 10000
7,"NC(=O)c1nc(-c2cccc(OC(F)(F)F)c2)cnc1N [compound 28, 3-amino-6-{3-[(trifluoromethyl)oxy]phenyl}pyrazine-2-carboxamide]",1000 to 10000
8,"Nc1ncc(-c2ccccc2)nc1C(=O)NO [compound 49, 3-amino-N-hydroxy-6-phenylpyrazine-2-carboxamide]",1000 to 10000
9,"Cc1cccc(-c2cnc(N)c(C(=O)NCCO)n2)c1 [compound 329, 3-amino-N-(2-hydroxyethyl)-6-(3-methylphenyl)pyrazine-2-carboxamide]",1000 to 10000
10,"CNc1ncc(-c2ccccc2)nc1C(N)=O [compound 38, 3-(methylamino)-6-phenylpyrazine-2-carboxamide]",> 10000
11,"CNC(=O)c1nc(-c2noc(-c3cccnc3)n2)cnc1N [compound 66, 3-amino-N-methyl-6-(5-pyridin-3-yl-1,2,4-oxadiazol-3-yl)pyrazine-2-carboxamide]",> 10000
12,"CNC(=O)c1nc(-c2noc(-c3ccncc3)n2)cnc1N [compound 73, 3-amino-N-methyl-6-(5-pyridin-4-yl-1,2,4-oxadiazol-3-yl)pyrazine-2-carboxamide]",> 10000
13,"Nc1ncc(-c2ccccc2)nc1C(=O)NC1CC1 [compound 20, 3-amino-N-cyclopropyl-6-phenylpyrazine-2-carboxamide]",> 10000
14,"CN(C)C(=O)c1nc(-c2ccccc2)cnc1N [compound 9, 3-amino-N,N-dimethyl-6-phenylpyrazine-2-carboxamide]",1000 to 10000
15,"CNC(=O)c1nc(-c2cccc(-c3ccccc3)c2)cnc1N [compound 55, 3-amino-6-biphenyl-3-yl-N-methylpyrazine-2-carboxamide]",50 to 1000
16,"NC(=O)c1nc(-c2ccc3c(c2)OCO3)cnc1N [compound 25, 3-amino-6-(1,3-benzodioxol-5-yl)pyrazine-2-carboxamide]",> 10000
17,"CNC(=O)c1nc(-c2ccc(OC)cc2)cnc1N [compound 54, 3-amino-N-methyl-6-[4-(methyloxy)phenyl]pyrazine-2-carboxamide]",1000 to 10000

row,Structure (SMILES),IC50 [nM]
1,"Nc1ncc(-c2ccccc2)nc1C(=O)NCC1CCCO1 (centres unmarked) [compound 13, 3-amino-6-phenyl-N-(tetrahydrofuran-2-ylmethyl)pyrazine-2-carboxamide]",> 10000
2,"CNC(=O)c1nc(-c2cccc(O)c2)cnc1N [compound 45, 3-amino-6-(3-hydroxyphenyl)-N-methylpyrazine-2-carboxamide]",50 to 1000
3,"CCOc1ccc(-c2cnc(N)c(C(=O)NC)n2)cc1 [compound 52, 3-amino-6-[4-(ethyloxy)phenyl]-N-methylpyrazine-2-carboxamide]",1000 to 10000
4,"CNC(=O)c1nc(-c2cccc(C)c2)cnc1N [compound 53, 3-amino-N-methyl-6-(3-methylphenyl)pyrazine-2-carboxamide]",50 to 1000
5,"Nc1ncc(-c2ccccc2)nc1C(=O)NC1CCCC1 [compound 8, 3-amino-N-cyclopentyl-6-phenylpyrazine-2-carboxamide]",> 10000
6,"NC(=O)c1nc(-c2cccc(-c3ccccc3)c2)cnc1N [compound 41, 3-amino-6-biphenyl-3-ylpyrazine-2-carboxamide]",50 to 1000
7,"CNC(=O)c1nc(-c2cccc(OCc3ccccc3)c2)cnc1N [compound 44, 3-amino-N-methyl-6-{3-[(phenylmethyl)oxy]phenyl}pyrazine-2-carboxamide]",1000 to 10000
8,"NC(=O)c1nc(-c2cc3ccccc3o2)cnc1N [compound 37, 3-amino-6-(1-benzofuran-2-yl)pyrazine-2-carboxamide]",> 10000
9,"NC(=O)c1nc(-c2ccccc2Cl)cnc1N [compound 7, 3-amino-6-(2-chlorophenyl)pyrazine-2-carboxamide]",> 10000
10,"Nc1ncc(-c2ccccc2)nc1C(=O)NCC1CC1 [compound 12, 3-amino-N-(cyclopropylmethyl)-6-phenylpyrazine-2-carboxamide]",> 10000
11,"CNC(=O)c1nc(-c2cccc(C(=O)NCc3ccc(C(C)(C)C)cc3)c2)cnc1N [compound 353, 3-amino-6-{3-[({[4-(1,1-dimethylethyl)phenyl]methyl}amino)carbonyl]phenyl}-N-methylpyrazine-2-carboxamide]",50 to 1000
12,"Nc1ncc(-c2ccccc2)nc1C(=O)NC1Cc2ccccc2C1 [compound 6, 3-amino-N-(2,3-dihydro-1H-inden-2-yl)-6-phenylpyrazine-2-carboxamide]",> 10000
13,"COc1cccc(-c2cnc(N)c(C(N)=O)n2)c1 [compound 10, 3-amino-6-[3-(methyloxy)phenyl]pyrazine-2-carboxamide]",1000 to 10000
14,"CC(=O)Nc1cccc(-c2cnc(N)c(C(N)=O)n2)c1 [compound 30, 6-[3-(acetylamino)phenyl]-3-aminopyrazine-2-carboxamide]",1000 to 10000
15,"NC(=O)c1nc(-c2cccc(OCc3ccccc3)c2)cnc1N [compound 35, 3-amino-6-{3-[(phenylmethyl)oxy]phenyl}pyrazine-2-carboxamide]",50 to 1000
16,"NC(=O)c1nc(-c2cccc3ccccc23)cnc1N [compound 26, 3-amino-6-naphthalen-1-ylpyrazine-2-carboxamide]",> 10000

# Same assay, conditions: Table 11; inhibition given as IC50 class symbol
row,Structure (SMILES),IC50 [nM]
1,"N=C(NNc1ccccc1)c1nc(-c2cccc(C(=O)N[C@H]3CCc4ccccc43)c2)cnc1N [compound 720, 3-{5-amino-6-[imino(2-phenylhydrazino)methyl]pyrazin-2-yl}-N-[(1S)-2,3-dihydro-1H-inden-1-yl]benzamide]",> 10000
2,"CC(C)(C)OC(=O)N1CC[C@H](NC(=O)c2nc(-c3cccc(C(=O)NCc4ccc(Cl)cc4)c3)cnc2N)C1 [compound 756, 1,1-dimethylethyl (3S)-3-[({3-amino-6-[3-({[(4-chlorophenyl)methyl]amino}carbonyl)phenyl]pyrazin-2-yl}carbonyl)amino]pyrrolidine-1-carboxylate]",50 to 1000
3,"CC(C)(C)OC(=O)N1CC[C@H](CNC(=O)c2nc(-c3cccc(C(=O)N[C@H]4CCc5ccccc54)c3)cnc2N)C1 [compound 784, 1,1-dimethylethyl (3R)-3-[({[3-amino-6-(3-{[(1S)-2,3-dihydro-1H-inden-1-ylamino]carbonyl}phenyl)pyrazin-2-yl]carbonyl}amino)methyl]pyrrolidine-1-carboxylate]",> 10000

# From EP1501514B1, “PROTEIN KINASE MODULATORS AND METHODS OF USE” (Exelixis, Inc., priority 2002, dated 2003)
